System: RV EDIM strain
Assay: RV EDIM diarrhea model in suckling mice (treatment after diarrhea onset)
Assay type: in vivo, BALB/c suckling mice
Method: BALB/c mice were purchased from Gempharmatech Inc. (Suzhou, China) and housed under SPF conditions (22 ± 1°C, 12 h light/dark cycle). Suckling mice were obtained by mating male and female adult BALB/c mice (12- to 16-week-old). Only the 7-day-old BALB/c suckling mice with body weights ranging from 2.5 g to 4.5 g were selected for RV diarrhea models. For induction of RV diarrhea, 1 × 10^6 PFU of SA11 strain or 10 × DD50 of EDIM strain in 20 µL PBS was orally inoculated using a pipette tip to 7-day-old BALB/c suckling mice regardless of their sexes, as sex has no significant influence on RV diarrhea occurrence. We used a scoring system to evaluate fecal consistency and color as described with some modification ([27]): no stool or brown formed stool (1 point); brown soft stool (2 points); yellow soft stool (3 points); and yellow watery stool (4 points). Mice with scores of ≥2 meant diarrhea occurrence, while mice with scores of 1 meant no diarrhea. At the end of each experiment, all infected or drug-treated suckling mice were humanely euthanized via CO2 asphyxiation.
Seven-day-old BALB/c suckling mice meeting the weight criteria within each litter were randomly assigned to experimental groups. Each litter was allocated to ensure one to three suckling mice per experimental group (variations dependent on the total number of groups). Data from suckling mice assigned to the same group across multiple litters were aggregated to achieve a total sample size of n = 3–6 per experimental group. Then, the suckling mice were orally inoculated with 1 × 10^6 PFU of the SA11 strain or 10 × DD50 of the EDIM strain, or with an equal amount of PBS as mock infection. For SA11 infection, the suckling mice were orally treated once with indicated doses of drugs or with an equal volume of DMSO as control at 2 h p.i. For EDIM infection, the suckling mice were orally treated with 0.2 mg/kg/day NVP-HSP990, 30 mg/kg/day ribavirin, or an equal amount of DMSO as control from 2 days post-infection (d p.i.) to indicated time points. Diarrhea scores and body weight were monitored from day 0 to day 7 post-infection in the SA11 infection model, and from day 0 to day 9 post-diarrhea occurrence (2–11 d p.i.) in the EDIM infection model. Blinding was applied throughout data collection and analysis.
The RV-infected suckling mice were sacrificed by CO2 asphyxiation at the indicated times, and small intestines (including duodenum, jejunum, and ileum) or colon was homogenized in 0.3 mL DMEM, centrifuged at 12,000 × g for 5 min at 4°C, and the supernatant was collected. Virus contents in the supernatant were titrated with PFA as described above. Viral antigens in the supernatant were detected with enzyme-linked immunosorbent assay (ELISA) kits for RV (CUSABIO, China) following the manufacturer’s instructions. For qPCR analysis of RV protein expression, the intestines were longitudinally split and washed in 1 mL DMEM by shaking for 30 s. Then, the tissues were cut into 0.5 cm segments, incubated in Hank’s buffer containing 2.5 mM EDTA-Na2 and 1 mM dithiothreitol (Sangon Biotech, China) at 37°C with rotation at 200 rpm for 30 min, filtered with a 70 µm strainer. Then the epithelial cells were pelleted by centrifugation at 500 × g for 5 min, purified with 20% Percoll (Cytiva, Sweden), and lysed in Trizol for RNA extraction and further qPCR analysis.
The jejunum and ileum of suckling mice were fixed in 4% paraformaldehyde for 24 h, washed with PBS twice, and then subjected to paraffin embedding and slicing at 5 µm thickness. The sections were stained with hematoxylin and eosin (Beyotime, China) and observed with an Olympus BX51 microscope, and the data were processed by CaseViewer 2.4 software. For immunohistochemistry analysis, the fixed tissues were dehydrated in 30% sucrose, embedded in Optimal Cutting Temperature compound, frozen with liquid nitrogen, and cryosliced at 10 µm thickness. […]

`COc1cccc(-c2cc(F)ccc2[C@H]2Cc3nc(N)nc(C)c3C(=O)N2)n1` [NVP-HSP990] was tested, and the “therapeutic effect on diarrhea compared to ribavirin” value (0.2 mg/kg/day NVP-HSP990 vs 30 mg/kg/day ribavirin, oral, 5 days) was “superior therapeutic effect”, the “weight gain in EDIM-infected suckling mice” value (0.2 mg/kg/day oral for 5 days, observed for another 5 days) was “did not adversely affect” and the diarrhea scores (0.2 mg/kg/day oral for 5 days, observed for another 5 days, compared to untreated group) was “significantly reduced”. The “foamy degeneration and viral infection in small intestinal epithelial cells” value (0.2 mg/kg/day oral from 2 d p.i., 3 consecutive days, compared to untreated controls) was “marked reduction”, the “RV viral antigens in colonic contents” value (0.2 mg/kg/day oral, 3 days, ELISA, vs untreated or ribavirin-treated (30 mg/kg/day) groups) was “significantly lower” and the “viral antigen (VP6 and NSP4) expression in intestinal epithelial cells” value (0.2 mg/kg/day oral, 3 days, qPCR, compared to untreated group) was “significantly reduced”.
